Data as given in ChEMBL document CHEMBL1142617, “Mycalamides C and D, cytotoxic compounds from the marine sponge Stylinos n. species” (J Nat Prod, 2000).
≈ marks a conversion by molar mass, not a printed value.

Test system: P388
Assay: Cytotoxicity against mouse P388 cells
Type: functional, cell-based

## C=C1C[C@](OC)([C@H](O)C(=O)N[C@H]2OCO[C@H]3[C@@H]2O[C@H](C[C@H](O)CO)C(C)(C)[C@@H]3OC)O[C@H](C)[C@@H]1C [MYCALAMIDE A]
  IC50: 0.0011 µg/mL (≈ 0.00218 µM)

## C=C1C[C@](OC)([C@H](O)C(=O)NC[C@H]2O[C@H](CO)C(C)(C)[C@H](O)[C@H]2O)O[C@H](C)[C@@H]1C [MYCALAMIDE C]
  IC50: 0.095 µg/mL (≈ 0.228 µM)

## C=C1C[C@](OC)([C@H](O)C(=O)N[C@H]2OCO[C@H]3[C@@H]2O[C@H](C[C@H](O)CO)C(C)(C)[C@@H]3O)O[C@H](C)[C@@H]1C [MYCALAMIDE D]
  IC50: 0.035 µg/mL (≈ 0.0715 µM)

## C=C1C[C@](OC)([C@H](O)C(=O)N[C@@H]2OCO[C@H]3[C@@H]2O[C@H](CO)C(C)(C)[C@@H]3OC)O[C@H](C)[C@@H]1C [THEOPEDERIN E]
  IC50: 0.0009 µg/mL (≈ 0.00196 µM)
